According to publication PMC9122626 (2020):

Assays:
[1] = tested on: human telomeric G4 DNA, dAGGG(TTAGGG)3 (DNA, G4) AGGGTTAGGGTTAGGGTTAGGG; experiment: EMSA; details: 30 μM G4; room temperature; up to 120 μM peptide
[2] = tested on: human telomeric G4 DNA, dAGGG(TTAGGG)3 (DNA, G4) AGGGTTAGGGTTAGGGTTAGGG; experiment: thiazole orange displacement (fluorescence); details: 298 K; at ~8.4 μM peptide; thiazole orange displaced; 0.25 μM G4, 0.50 μM TO
[3] = tested on: human telomeric G4 DNA, dAGGG(TTAGGG)3 (DNA, G4) AGGGTTAGGGTTAGGGTTAGGG; experiment: CD melting (295 nm); details: Na+ 100 mM; peptide concentration not given
[4] = tested on: ds26 (DNA, duplex) CAATCGGATCGAATTCGATCCGATTG; experiment: ITC; details: Na+ 100 mM
[5] = tested on: human telomeric G4 DNA, dAGGG(TTAGGG)3 (DNA, G4) AGGGTTAGGGTTAGGGTTAGGG; experiment: ITC; details: 298.15 K; 64 μM DNA in cell, 700 μM peptide in syringe

`CC(C)[C@H](N)C(=O)N[C@@H](CCC(=O)N[C@@H](CCC(=O)O)C(=O)O)C(=O)N[C@@H](CCC(=O)O)C(=O)O` (racemic) was tested, and the binding [1] was “no”, the “% TO displacement” value [2] was ~ 6.5% and the Tm [3] was ~ -1 °C. The Ka [4] was 3360 M⁻¹ and the binding [5] was “no”.
